Reference: paper PMC12428505, “A Bifunctional SARS-CoV-2 Entry Inhibitor Targeting the Host Protease TMPRSS2 and Viral Spike Protein HR1 Region” (International Journal of Molecular Sciences, 2025)
*1 amine or outer side, *2 acyl side, *3 side chain or, on linkers, in order; H or OH if unused. Where a SMILES comes first, the peptide text is derived from it. [ ]: non-standard residue; d: D form. The star is where a group is joined. PEG24 = NCCOCCOCCOCCOCCOCCOCCOCCOCCOCCOCCOCCOCCOCCOCCOCCOCCOCCOCCOCCOCCOCCOCCOCCOCCC(=O)O; X1 = N=C(N)Nc1ccc(C(=O)Oc2ccc(CC(=O)OCC(=O)*)cc2)cc1; X2 = CN(Cc1cn(CC(=O)[*:2])nn1)[*:1]; X3 = O=C(Cn1cc(CN[*:1])nn1)[*:2]; PEG4 = NCCOCCOCCOCCOCCC(=O)O

Test system: wild-type SARS-CoV-2 PsV
Experiment: not given
Conditions: 48 h

`CC[C@H](C)[C@H](NC(=O)[C@H](CCCNC(=N)N)NC(=O)[C@H](CCSC)NC(=O)[C@H](CC(C)C)NC(=O)[C@H](CCC(=O)O)NC(=O)[C@H](Cc1ccc(O)cc1)NC(=O)[C@@H](NC(=O)[C@H](CCCCN)NC(=O)[C@H](CCC(N)=O)NC(=O)[C@H](CC(C)C)NC(=O)[C@@H](NC(=O)[C@H](Cc1c[nH]c2ccccc12)NC(=O)[C@H](CCC(=O)O)NC(=O)[C@H](CCCCN)NC(=O)[C@H](CC(=O)O)NC(=O)CCOCCOCCOCCOCCOCCOCCOCCOCCOCCOCCOCCOCCOCCOCCOCCOCCOCCOCCOCCOCCOCCOCCOCCOCCNC(=O)Cn1cc(CNC(=O)COC(=O)Cc2ccc(OC(=O)c3ccc(NC(=N)N)cc3)cc2)nn1)[C@@H](C)CC)[C@@H](C)CC)C(=O)N[C@@H](CC(C)C)C(=O)N[C@@H](CC(=O)O)C(=O)N[C@@H](CCC(=O)O)C(=O)N[C@@H](CC(C)C)C(=O)NCC(=O)N[C@@H](Cc1c[nH]cn1)C(=O)N[C@@H](C)C(=O)N[C@@H](CCC(=O)O)C(=O)N[C@@H](C)C(=O)N[C@@H](CO)C(=O)N[C@@H](CCSC)C(=O)N[C@@H](CCCNC(=N)N)C(=O)N[C@H](C(=O)N[C@@H](CCC(=O)O)C(=O)N[C@@H](CC(=O)O)C(=O)N[C@@H](CC(C)C)C(=O)N[C@H](C(=O)N[C@@H](Cc1ccc(O)cc1)C(=O)N[C@@H](CCC(=O)O)C(=O)N[C@@H](Cc1ccccc1)C(=O)N[C@@H](CCSC)C(=O)N[C@@H](CCCCN)C(N)=O)[C@@H](C)CC)C(C)C` [LP24Z] (X1-[X3][PEG24]DKEWILQKIYELMRILDELGHAEASMRVEDLIYEFMK-NH2) and `CC[C@H](C)[C@H](NC(=O)[C@H](CCCNC(=N)N)NC(=O)[C@H](CCSC)NC(=O)[C@H](CC(C)C)NC(=O)[C@H](CCC(=O)O)NC(=O)[C@H](Cc1ccc(O)cc1)NC(=O)[C@@H](NC(=O)[C@H](CCCCN)NC(=O)[C@H](CCC(N)=O)NC(=O)[C@H](CC(C)C)NC(=O)[C@@H](NC(=O)[C@H](Cc1c[nH]c2ccccc12)NC(=O)[C@H](CCC(=O)O)NC(=O)[C@H](CCCCN)NC(=O)[C@H](CC(=O)O)NC(=O)CCOCCOCCOCCOCCOCCOCCOCCOCCOCCOCCOCCOCCOCCOCCOCCOCCOCCOCCOCCOCCOCCOCCOCCOCCNC(=O)Cn1cc(CN(C)C(=O)COC(=O)Cc2ccc(OC(=O)c3ccc(NC(=N)N)cc3)cc2)nn1)[C@@H](C)CC)[C@@H](C)CC)C(=O)N[C@@H](CC(C)C)C(=O)N[C@@H](CC(=O)O)C(=O)N[C@@H](CCC(=O)O)C(=O)N[C@@H](CC(C)C)C(=O)NCC(=O)N[C@@H](Cc1c[nH]cn1)C(=O)N[C@@H](C)C(=O)N[C@@H](CCC(=O)O)C(=O)N[C@@H](C)C(=O)N[C@@H](CO)C(=O)N[C@@H](CCSC)C(=O)N[C@@H](CCCNC(=N)N)C(=O)N[C@H](C(=O)N[C@@H](CCC(=O)O)C(=O)N[C@@H](CC(=O)O)C(=O)N[C@@H](CC(C)C)C(=O)N[C@H](C(=O)N[C@@H](Cc1ccc(O)cc1)C(=O)N[C@@H](CCC(=O)O)C(=O)N[C@@H](Cc1ccccc1)C(=O)N[C@@H](CCSC)C(=O)N[C@@H](CCCCN)C(N)=O)[C@@H](C)CC)C(C)C` [LP24X] (X1-[X2][PEG24]DKEWILQKIYELMRILDELGHAEASMRVEDLIYEFMK-NH2) are within error of each other in IC50: 330 ± 10 nM for the first, 320 ± 30 nM for the second.

“Ac-DKEWILQKIYELMRILDELGHAEASMRVEDLIYEFMK-NH2 [LCB1T, reference compound]” and `CC[C@H](C)[C@H](NC(=O)[C@H](CCCNC(=N)N)NC(=O)[C@H](CCSC)NC(=O)[C@H](CC(C)C)NC(=O)[C@H](CCC(=O)O)NC(=O)[C@H](Cc1ccc(O)cc1)NC(=O)[C@@H](NC(=O)[C@H](CCCCN)NC(=O)[C@H](CCC(N)=O)NC(=O)[C@H](CC(C)C)NC(=O)[C@@H](NC(=O)[C@H](Cc1c[nH]c2ccccc12)NC(=O)[C@H](CCC(=O)O)NC(=O)[C@H](CCCCN)NC(=O)[C@H](CC(=O)O)NC(=O)CCOCCOCCOCCOCCNC(=O)Cn1cc(CNC(=O)COC(=O)Cc2ccc(OC(=O)c3ccc(NC(=N)N)cc3)cc2)nn1)[C@@H](C)CC)[C@@H](C)CC)C(=O)N[C@@H](CC(C)C)C(=O)N[C@@H](CC(=O)O)C(=O)N[C@@H](CCC(=O)O)C(=O)N[C@@H](CC(C)C)C(=O)NCC(=O)N[C@@H](Cc1c[nH]cn1)C(=O)N[C@@H](C)C(=O)N[C@@H](CCC(=O)O)C(=O)N[C@@H](C)C(=O)N[C@@H](CO)C(=O)N[C@@H](CCSC)C(=O)N[C@@H](CCCNC(=N)N)C(=O)N[C@H](C(=O)N[C@@H](CCC(=O)O)C(=O)N[C@@H](CC(=O)O)C(=O)N[C@@H](CC(C)C)C(=O)N[C@H](C(=O)N[C@@H](Cc1ccc(O)cc1)C(=O)N[C@@H](CCC(=O)O)C(=O)N[C@@H](Cc1ccccc1)C(=O)N[C@@H](CCSC)C(=O)N[C@@H](CCCCN)C(N)=O)[C@@H](C)CC)C(C)C` [LP4Z] (X1-[X3][PEG4]DKEWILQKIYELMRILDELGHAEASMRVEDLIYEFMK-NH2) are within error of each other in IC50: 440 ± 40 nM for the first, 450 ± 200 nM for the second.

For `CC[C@H](C)[C@H](NC(=O)[C@H](CCCNC(=N)N)NC(=O)[C@H](CCSC)NC(=O)[C@H](CC(C)C)NC(=O)[C@H](CCC(=O)O)NC(=O)[C@H](Cc1ccc(O)cc1)NC(=O)[C@@H](NC(=O)[C@H](CCCCN)NC(=O)[C@H](CCC(N)=O)NC(=O)[C@H](CC(C)C)NC(=O)[C@@H](NC(=O)[C@H](Cc1c[nH]c2ccccc12)NC(=O)[C@H](CCC(=O)O)NC(=O)[C@H](CCCCN)NC(=O)[C@H](CC(=O)O)NC(=O)CCOCCOCCOCCOCCNC(=O)Cn1cc(CN(C)C(=O)COC(=O)Cc2ccc(OC(=O)c3ccc(NC(=N)N)cc3)cc2)nn1)[C@@H](C)CC)[C@@H](C)CC)C(=O)N[C@@H](CC(C)C)C(=O)N[C@@H](CC(=O)O)C(=O)N[C@@H](CCC(=O)O)C(=O)N[C@@H](CC(C)C)C(=O)NCC(=O)N[C@@H](Cc1c[nH]cn1)C(=O)N[C@@H](C)C(=O)N[C@@H](CCC(=O)O)C(=O)N[C@@H](C)C(=O)N[C@@H](CO)C(=O)N[C@@H](CCSC)C(=O)N[C@@H](CCCNC(=N)N)C(=O)N[C@H](C(=O)N[C@@H](CCC(=O)O)C(=O)N[C@@H](CC(=O)O)C(=O)N[C@@H](CC(C)C)C(=O)N[C@H](C(=O)N[C@@H](Cc1ccc(O)cc1)C(=O)N[C@@H](CCC(=O)O)C(=O)N[C@@H](Cc1ccccc1)C(=O)N[C@@H](CCSC)C(=O)N[C@@H](CCCCN)C(N)=O)[C@@H](C)CC)C(C)C` [LP4X] (X1-[X2][PEG4]DKEWILQKIYELMRILDELGHAEASMRVEDLIYEFMK-NH2), the IC50 was 400 ± 60 nM.

Test system: wild-type SARS-CoV-2 PsV
Experiment: microbe, parasite or virus in culture
Conditions: Severe acute respiratory syndrome coronavirus 2, Caco-2

`CN(C)C(=O)COC(=O)Cc1ccc(OC(=O)c2ccc(NC(=N)N)cc2)cc1` [Camostat] showed an IC50 of 4.6 ± 2.32 µM.
